Experimental data reported in patent publication US20040143014A1, “Therapeutic use of alpha-2-delta ligands” (Pfizer Inc, priority 2002, published 2004).
“Also recorded” adds a separate entry of the source.

How the values were obtained:
[1] = test system: human small bronchi; assay: Human bronchi contraction induced by acetylcholine, organ bath; conditions: 0.1 mM and 1 mM, 15 min before the stimulus; ACh 100 nM-10 mM
Experimental: The human samples were taken from 10 different patients who were undergoing lung resection for a solitary peripheral carcinoma. […] The bronchial rings (from 3 to 11 from each sample) were taken from the lobar or segmental bronchus of the lobe obtained at surgery, away from the tumor site.
Tissues were fixed to the base of the organ bath and connected to an isometric force transducer. […] During the initial stabilization period (90 min) tissues were washed six times. A challenge with acetyl choline (Ach) (1 mM) was performed and after washing, the tissue was allowed to equilibrate for an additional 90 min. To prevent peptide degradation phosphoramidon (1 μM) was added to the bath. Viability of the tissues was tested with the response to ACh (1 mM).
Experiments in human bronchi were performed in the presence of L-NAME (100 μM) to block the production of nitric oxide, indomethacin (5 μM) to block the production of prostanoids and propranolol (1 μM) to block β-adrenoceptors.
(§1) Values were presented as mean±standard error of the mean (SEM). Comparisons between groups were made by one way analysis of variance (ANOVA) and the Dunnett's test for multiple comparisons. A p value of <0.05 was considered significant.

[2] = test system: citric acid-induced cough; assay: Citric acid-induced cough in guinea pigs; conditions: for inhibition of the cough response to citric acid inhalation: aerosolized 1 mM inhaled for 10 min prior to citric acid 0.25 M; for motor activity (behavioral effect, not quantified): guinea pigs, 1 mM aerosolized for 10 min
Experimental: After the period of acclimatisation to laboratory conditions, animals were individually placed in a transparent perspex box (20×10×10 cm, Vetrotecnica, Italy) ventilated with a constant airflow of 400 ml/min. The tussive agents (citric acid 0.25 M) was nebulised via a mini-ultrasonic nebuliser (Ugo Basile, Italy). […] The appearance of cough was detected by means of a tie-clip microphone (Sony, Japan) and confirmed by the characteristic posture of the animal. The cough sounds were recorded and digitally stored. The number of elicited cough efforts was subsequently counted by a blind observer.
All experiments were carried out at the same time of day. To elicit cough, guinea pigs were exposed to aerosols of citric acid for 10 min.
as §1

[3] = test system: human small bronchi; assay: Human bronchi contraction produced by electric field stimulation (EFS), organ bath; conditions: 0.1 mM and 1 mM; EFS 30 Hz, 0.5 ms, 10 sec, 70V; with L-NAME, indomethacin, propranolol
Excerpt: In a separate set of experiments, human bronchi were electrically stimulated (30 Hz, 0.5 ms pulse width, duration 10 sec, 70V).

[4] = test system: citric acid induced cough; conditions: guinea pigs; Lalloo et al., Trevisani et al.; cited from earlier work
[5] = test system: rat spinal tissues; conditions: only after inflammation or activation of protein kinase C; Pain 2003, 105, 133-141; cited from earlier work

Row | SMILES | inhibition of the contraction caused by acetylcholine [1] | inhibition of the cough response to citric acid inhalation [2] | motor activity (behavioral effect, not quantified) [2] | effect on the contractile response produced by EFS [3] | effect on citric acid induced cough [4] | release of substance P and CGRP [5]
1 | NC[C@]1(CC(=O)O)C[C@H]2CC[C@H]2C1 [Compound A, (1α, 3α,5α)(3-amino-methyl-bicyclo[3.2.0]hept-3-yl)-acetic acid] | did not produce any significant inhibition; also recorded: Absence of effect | significant inhibition | some degree of reduction in motor activity | significant (p<0.05) inhibitory effect | – | –
2 | Oc1cc2c(cc1O)CN(C(=S)NCCc1ccc(Cl)cc1)CCC2 [capsazepine] | – | – | – | – | inhibited this response | –
3 | NCC1(CC(=O)O)CCCCC1 [gabapentin, 1-(aminomethyl)-cyclohexylacetic acid] | did not produce any significant inhibition; also recorded: Absence of effect | significant inhibition | some degree of reduction in motor activity | significant (p<0.05) inhibitory effect | – | reduce release of substance P and CGRP
4 | C=C(C)[C@]12C[C@@H](C)[C@@]34O[C@](Cc5ccccc5)(O[C@@H]1[C@@H]3C=C(COC(=O)Cc1cc(I)c(O)c(OC)c1)C[C@]1(O)C(=O)C(C)=C[C@@H]41)O2 [iodo-resiniferatoxin] | – | – | – | – | inhibited this response | –
5 | CC(C)C[C@H](CN)CC(=O)O [pregabalin, (S)-(+)-4-amino-3-(2-methylpropyl)butanoic acid] | – | – | – | – | – | reduce release of substance P and CGRP
